Measurements: the NIST ThermoML archive (doi:10.1016/j.jct.2005.05.020)
± gives the expanded uncertainty stated by the source.

Details: 101.33 kPa, Liquid

Compound	mass density (273.15 K) [kg/m3]	mass density (278.15 K) [kg/m3]	mass density (283.15 K) [kg/m3]	mass density (288.15 K) [kg/m3]	mass density (293.15 K) [kg/m3]	mass density (298.15 K) [kg/m3]	mass density (303.15 K) [kg/m3]	mass density (308.15 K) [kg/m3]	mass density (313.15 K) [kg/m3]	mass density (318.15 K) [kg/m3]	mass density (323.15 K) [kg/m3]	mass density (328.15 K) [kg/m3]	mass density (333.15 K) [kg/m3]	mass density (338.15 K) [kg/m3]	mass density (343.15 K) [kg/m3]	mass density (348.15 K) [kg/m3]	mass density (353.15 K) [kg/m3]	mass density (358.15 K) [kg/m3]
CCCCCCC [heptane]	700.67 ± 0.62	696.57 ± 0.62	692.4 ± 0.63	688.2 ± 0.64	683.99 ± 0.64	679.75 ± 0.65	675.49 ± 0.66	671.19 ± 0.66	666.87 ± 0.67	662.52 ± 0.68	658.13 ± 0.68	653.71 ± 0.69	649.24 ± 0.7	644.74 ± 0.71	640.19 ± 0.71	635.6 ± 0.72	630.95 ± 0.73	626.26 ± 0.74
CCCCCC [hexane]	677.18 ± 0.66	672.79 ± 0.67	668.37 ± 0.67	663.91 ± 0.68	659.42 ± 0.69	654.89 ± 0.69	650.33 ± 0.7	645.73 ± 0.71	641.08 ± 0.72	636.38 ± 0.72	631.64 ± 0.73	626.84 ± 0.74	621.99 ± 0.75	617.07 ± 0.75				
CCCCC [pentane]	645.5 ± 0.72	640.7 ± 0.72	635.9 ± 0.73	631.04 ± 0.74	626.12 ± 0.74	621.14 ± 0.75	616.11 ± 0.76	611.01 ± 0.77										
